Experimental data published in patent US20090170893A1, “NOVEL HYDRATE FORM” (priority 2006, published 2009).

Assay: storage stability of the solid form (polymorphic conversion)
Type: physicochemical

**Q.** For COc1c(N2C[C@@H]3CCCN[C@@H]3C2)c(F)cc2c(=O)c(C(=O)O)cn(C3CC3)c12.Cl [Example 1, 1-cyclopropyl-7-([S,S]-2,8-diazabicyclo-[4.3.0]non-8-yl)-6-fluoro-1,4-dihydro-8-methoxy-4-oxo-3-quinolinecarboxylic acid], which “stability / polymorphic conversion on prolonged storage” value (prolonged storage over 3 weeks at ambient conditions) is on record?
**A.** The value was “stable and exhibit no polymorphic conversion”.

**Q.** And the “stability / polymorphic conversion on prolonged storage” value (prolonged storage over 3 weeks at high humidity accelerated conditions)?
**A.** Its value is “stable and exhibit no polymorphic conversion”.
